Reference: the NIST ThermoML archive (doi:10.1021/je301279x)
Numbers after ± are expanded uncertainties.

Experiments:
[1] = Drop volume
[2] = xn = mol fraction of the nth substance listed; conditions: for surface tension liquid-gas: Drop volume; for mass density: 800 kPa, Liquid, Vibrating tube method

NCCO [2-aminoethan-1-ol]
[1]
Conditions | surface tension liquid-gas [mN/m]
293.15 K | 48.48 ± 0.84
303.15 K | 47.64 ± 0.83
313.15 K | 46.88 ± 0.83

O [water]
[1]
Conditions | surface tension liquid-gas [mN/m]
293.15 K | 72.56 ± 2
303.15 K | 70.9 ± 2
313.15 K | 69.81 ± 1.9
323.15 K | 67.72 ± 1.9

NCCO [2-aminoethan-1-ol] + O
[2]
Conditions | mass density, 303.15 K [kg/m3] | mass density, 313.15 K [kg/m3] | mass density, 323.15 K [kg/m3] | mass density, 333.15 K [kg/m3] | surface tension liquid-gas, 303.15 K [mN/m] | surface tension liquid-gas, 313.15 K [mN/m] | surface tension liquid-gas, 323.15 K [mN/m] | surface tension liquid-gas, 333.15 K [mN/m]
x1 = 0.0687 | 1003.6 ± 6.2 | 999.4 ± 6.2 | 994.6 ± 6.1 | 989.1 ± 6.1 | 66.7 ± 2.9 | 65.2 ± 2.9 | 63.6 ± 2.8 | 61.6 ± 2.8
x1 = 0.1122 | 1008.2 ± 6 | 1003.3 ± 5.9 | 998.1 ± 5.9 | 992.3 ± 5.9 | 63.7 ± 2.8 | 62.4 ± 2.8 | 61 ± 2.8 | 59.5 ± 2.8
x1 = 0.1643 | 1013.3 ± 5.7 | 1007.8 ± 5.7 | 1002.1 ± 5.7 | 995.7 ± 5.6 | 61.5 ± 2.7 | 59.8 ± 2.7 | 58.4 ± 2.7 | 57 ± 2.7
x1 = 0.2277 | 1017.8 ± 5.4 | 1011.8 ± 5.4 | 1005.4 ± 5.4 | 998.7 ± 5.4 | 59.6 ± 2.7 | 58.1 ± 2.7 | 56.5 ± 2.7 | 55.1 ± 2.6
x1 = 0.3067 | 1021.3 ± 5.1 | 1014.6 ± 5.1 | 1007.8 ± 5.1 | 1000.6 ± 5.1 | 57.4 ± 2.6 | 56.1 ± 2.6 | 55 ± 2.6 | 53.6 ± 2.6
x1 = 0.4076 | 1022.6 ± 4.9 | 1015.5 ± 4.8 | 1008.2 ± 4.8 | 1000.6 ± 4.8 | 54.5 ± 2.6 | 53.6 ± 2.6 | 52.5 ± 2.5 | 51.2 ± 2.5
